Results from the supplement of paper PMC10307832.

Key:
Experiment in all cases: relative viability (nuclei count vs DMSO), 5 days (fraction); higher = more cells survive
[1] = compound: Cc1ccc2nc(NCCN)c3ncc(C)n3c2c1 + O=C(CCCCCCC(=O)Nc1ccccc1)NO [Vorinostat] (partner 1 µM)
Method in brief: (§1)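 Lung cancer cell lines in 1536-well plates got either a single drug or a fixed anchor-drug dose together with five library-drug doses (not always all listed) in √10 steps, by pin tool, on the day after seeding. Nuclei were counted after 5 days, and relative viability is the treated-to-vehicle ratio of nuclei counts. Values are medians of duplicate plates.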

[2] = compound: Cc1ccc2nc(NCCN)c3ncc(C)n3c2c1 + CC(C)C[C@H](NC(=O)[C@H](Cc1ccccc1)NC(=O)c1cnccn1)B(O)O [Bortezomib] (partner 0.002 µM)
Method in brief: as §1

Salubrinal + AZD7762 = compound: O=C(/C=C/c1ccccc1)NC(NC(=S)Nc1cccc2cccnc12)C(Cl)(Cl)Cl [Salubrinal] + NC(=O)Nc1cc(-c2cccc(F)c2)sc1C(=O)N[C@H]1CCCNC1 [AZD7762] (partner 0.2 µM)
Method in brief: as §1

Salubrinal + Phenformin = compound: O=C(/C=C/c1ccccc1)NC(NC(=S)Nc1cccc2cccnc12)C(Cl)(Cl)Cl [Salubrinal] + N=C(N)NC(=N)NCCc1ccccc1 [Phenformin] (partner 250 µM)
Method in brief: as §1

Row | Cell Line | relative viability ([1]; first compound 0.04 µM) | relative viability ([1]; first compound 0.1265 µM) | relative viability ([1]; first compound 0.4 µM) | relative viability ([1]; first compound 1.265 µM) | relative viability ([1]; first compound 4 µM) | relative viability ([2]; first compound 0.04 µM) | relative viability ([2]; first compound 0.1265 µM) | relative viability ([2]; first compound 0.4 µM) | relative viability ([2]; first compound 1.265 µM) | relative viability ([2]; first compound 4 µM) | relative viability (Salubrinal + AZD7762; first compound 0.08 µM) | relative viability (Salubrinal + AZD7762; first compound 0.253 µM) | relative viability (Salubrinal + AZD7762; first compound 0.8 µM) | relative viability (Salubrinal + AZD7762; first compound 2.53 µM) | relative viability (Salubrinal + AZD7762; first compound 8 µM) | relative viability (Salubrinal + Phenformin; first compound 0.08 µM) | relative viability (Salubrinal + Phenformin; first compound 0.253 µM) | relative viability (Salubrinal + Phenformin; first compound 0.8 µM) | relative viability (Salubrinal + Phenformin; first compound 2.53 µM) | relative viability (Salubrinal + Phenformin; first compound 8 µM)
1 | EPLC-272H | 0.564 | 0.406 | 0.279 | 0.374 | 0.415 | 0.914 | 0.782 | 0.911 | 0.805 | 0.97 | 0.229 | 0.191 | 0.304 | 0.229 | 0.156 | 0.256 | 0.236 | 0.342 | 0.259 | 0.282
2 | NCI-H1915 | 0.515 | 0.506 | 0.422 | 0.555 | 0.454 | 0.977 |  | 0.685 | 0.964 | 0.915 | 0.713 |  | 0.718 | 0.71 | 0.676 | 0.39 | 0.341 | 0.389 | 0.355 | 0.365
3 | NCI-H596 | 0.674 | 0.714 | 0.609 | 0.668 | 0.588 | 1.01 | 0.937 | 0.978 | 0.976 | 0.971 | 1.05 | 1 | 1.07 | 1.16 | 0.865 | 0.98 | 0.703 | 0.68 | 0.757 | 0.704
4 | NCI-H322M | 0.991 | 0.86 | 0.957 | 1 | 1.09 | 1.29 | 1.1 | 1.24 | 1.18 | 1.27 | 0.576 | 0.531 | 0.599 | 0.497 | 0.581 | 0.783 | 0.725 | 0.929 | 0.769 | 0.678
5 | NCI-H647 | 0.691 | 0.384 | 0.571 | 0.492 | 0.328 | 0.943 | 0.783 | 0.999 | 0.864 | 0.707 | 0.616 | 0.435 | 0.487 | 0.505 | 0.397 | 0.607 | 0.293 | 0.885 | 0.595 | 0.452
6 | NCI-H2085 | 0.816 | 0.784 | 0.77 | 0.857 | 0.808 | 1.13 | 1.02 | 1.04 | 1.05 | 1.03 | 1.14 | 0.905 | 0.944 | 0.946 | 0.932 | 0.68 | 0.634 | 0.682 | 0.749 | 0.665
7 | NCI-H727 | 1.3 |  | 1.13 | 1.18 | 1.04 | 0.822 | 0.806 | 0.683 | 0.732 | 0.639 | 0.574 | 0.648 | 0.649 | 0.583 | 0.584 | 0.41 | 0.461 | 0.491 | 0.504 | 0.688
8 | NCI-H441 | 0.925 | 0.822 | 0.848 | 0.806 | 0.731 | 0.72 | 0.463 | 0.423 | 0.533 | 0.438 | 1.28 | 0.87 | 1.03 | 0.905 | 0.85 | 0.939 | 0.855 | 0.892 | 0.755 | 0.72
9 | LOU-NH91 | 1.02 | 0.902 | 0.87 | 0.931 | 0.858 | 0.494 | 0.587 | 0.556 | 0.529 | 0.423 | 0.813 | 0.785 | 0.83 | 0.745 | 0.706 | 0.813 | 0.693 | 0.739 | 0.583 | 0.663
10 | NCI-H3122 | 1.13 | 1.28 | 1.01 | 1.05 | 1.37 | 0.957 | 1.03 | 1.05 | 0.985 | 1.1 | 1.16 | 0.979 | 1.07 | 1.1 | 1.05 | 0.42 | 0.371 | 0.412 | 0.367 | 0.356
11 | NCI-H460 | 0.74 | 0.7 | 0.708 | 0.683 | 0.631 | 1.05 | 1.02 | 1.08 | 1.08 | 1.01 | 0.627 | 0.546 | 0.722 | 0.711 | 0.552 | 0.706 | 0.32 | 0.629 | 0.515 | 0.49
12 | NCI-H650 | 0.584 | 0.461 | 0.351 | 0.534 | 0.409 | 0.863 | 0.673 | 0.73 | 0.859 | 0.621 | 1.01 | 1.19 | 1.04 | 0.953 | 0.883 | 0.456 | 0.514 | 0.509 | 0.499 | 0.417
13 | NCI-H1734 | 0.816 | 0.824 | 0.637 | 0.733 | 0.77 | 1.04 | 0.965 | 0.942 | 0.935 | 0.999 | 0.596 | 0.657 | 0.613 | 0.572 | 0.515 | 0.416 | 0.375 | 0.412 | 0.429 | 0.366
14 | LXF-289 | 0.765 | 0.639 | 0.795 | 0.629 | 0.806 | 1.01 | 0.97 | 0.987 | 0.984 | 0.994 | 1.25 | 1.06 | 1.17 | 1.09 | 0.931 | 0.542 | 0.451 | 0.555 | 0.504 | 0.502
15 | H3255 | 0.831 | 0.832 | 0.629 | 0.706 | 0.653 | 0.976 | 0.745 | 0.695 | 0.943 | 0.691 | 0.967 | 0.786 | 1.03 | 0.87 | 0.859 | 0.364 | 0.349 | 0.44 | 0.386 | 0.335
16 | 201T | 0.969 | 0.975 | 0.887 | 1.05 | 1.02 | 1.11 | 1.2 | 1.09 | 1.11 | 1.11 | 0.627 | 0.616 | 0.741 | 0.648 | 0.637 | 0.44 | 0.32 | 0.508 | 0.462 | 0.456
17 | NCI-H2126 | 0.931 | 0.821 | 0.788 | 0.835 | 0.755 | 1.15 | 1.1 | 1.18 | 1.16 | 1.13 | 1.05 | 0.936 | 1.06 | 0.992 | 0.909 | 0.512 | 0.537 | 0.562 | 0.563 | 0.519
